Assay results as given in patent US7514448B2, “Azaindoles useful as inhibitors of rock and other protein kinases” (Vertex Pharmaceuticals Incorporated, priority 2004, dated 2009).

Assays:
Format in all cases: biochemical
PKA = PKA (Homo sapiens, UniProt P17612); assay: PKA inhibition assay, coupled enzyme; settings: average Ki if more than one determined
How it was run: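 Coupled PK/LDH assay following NADH depletion: 18 nM PKA, 50 μM ATP, 80 μM Kemptide in 100 mM HEPES pH 7.5, 10 mM MgCl2, 25 mM NaCl, 1 mM DTT, 3% DMSO, at 30 °C. Compound preincubated 10 min before ATP start; initial rates over 15 min, IC50 and Ki by non-linear regression.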

Itk = biological target: T1, Itk (Homo sapiens, UniProt Q08881); assay: Itk inhibition assay, coupled enzyme; settings: average Ki if more than one determined
T1 sequence (Q08881 1-620): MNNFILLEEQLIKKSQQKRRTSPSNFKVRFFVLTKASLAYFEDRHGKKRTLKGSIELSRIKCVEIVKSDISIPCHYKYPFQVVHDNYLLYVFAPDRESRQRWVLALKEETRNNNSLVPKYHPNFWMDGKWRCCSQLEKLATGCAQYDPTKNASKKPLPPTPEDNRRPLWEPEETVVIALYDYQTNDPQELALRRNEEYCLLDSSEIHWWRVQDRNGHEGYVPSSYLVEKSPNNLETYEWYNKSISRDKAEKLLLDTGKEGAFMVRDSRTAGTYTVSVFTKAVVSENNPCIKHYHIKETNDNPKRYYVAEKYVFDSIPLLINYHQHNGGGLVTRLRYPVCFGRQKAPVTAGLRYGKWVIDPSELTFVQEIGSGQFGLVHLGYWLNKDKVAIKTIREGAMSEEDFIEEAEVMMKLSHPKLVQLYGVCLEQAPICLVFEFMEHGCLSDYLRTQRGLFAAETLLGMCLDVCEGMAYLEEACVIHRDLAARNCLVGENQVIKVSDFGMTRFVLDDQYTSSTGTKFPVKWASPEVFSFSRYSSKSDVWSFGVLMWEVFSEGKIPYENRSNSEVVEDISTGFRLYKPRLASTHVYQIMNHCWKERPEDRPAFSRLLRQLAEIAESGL
Protocol: Compounds were screened for their ability to inhibit Itk using a standard coupled enzyme assay (Fox et al., Protein Sci., (1998) 7, 2249). Assays were carried out in a mixture of 20 mM MOPS (pH 7.0), 10 mM MgCl2, 0.1% BSA, 1 mM DTT, 2.5 mM phosphoenolpyruvate, 300 μM NADH, 30 μg/ml pyruvate kinase and 10 μg/ml lactate dehydrogenase. Final substrate concentrations in the assay were 100 μM ATP (Sigma Chemicals) and 3 μM peptide (Biotinylated SAM68 D332-443). Assays were carried out at 25° C. and in the presence of 100 nM Itk.
An assay stock buffer solution was prepared containing all of the reagents listed above, with the exception of ATP and the test compound of interest. 60 μl of the stock solution was placed in a 96 well plate followed by addition of 2 μl of DMSO stock containing serial dilutions of the test compound (typically starting from a final concentration of 15 μM). The plate was preincubated for 10 minutes at 25° C. and the reaction initiated by addition of 5 μl of ATP. Initial reaction rates were determined with a Molecular Devices SpectraMax Plus plate reader over a 10 minute time course. IC50 and Ki data were calculated from non-linear regression analysis using the Prism software package (GraphPad Prism version 3.0cx for Macintosh, GraphPad Software, San Diego Calif., USA).

ROCK I (AA 6-553) = ROCK I (AA 6-553) (Homo sapiens, UniProt Q13464); assay: ROCK inhibition assay, coupled enzyme system ("Enzyme"); settings: enzyme-linked assay; average Ki if more than one determined
ROCK I (AA 6-553), sequence (Q13464 6-553, species assumed): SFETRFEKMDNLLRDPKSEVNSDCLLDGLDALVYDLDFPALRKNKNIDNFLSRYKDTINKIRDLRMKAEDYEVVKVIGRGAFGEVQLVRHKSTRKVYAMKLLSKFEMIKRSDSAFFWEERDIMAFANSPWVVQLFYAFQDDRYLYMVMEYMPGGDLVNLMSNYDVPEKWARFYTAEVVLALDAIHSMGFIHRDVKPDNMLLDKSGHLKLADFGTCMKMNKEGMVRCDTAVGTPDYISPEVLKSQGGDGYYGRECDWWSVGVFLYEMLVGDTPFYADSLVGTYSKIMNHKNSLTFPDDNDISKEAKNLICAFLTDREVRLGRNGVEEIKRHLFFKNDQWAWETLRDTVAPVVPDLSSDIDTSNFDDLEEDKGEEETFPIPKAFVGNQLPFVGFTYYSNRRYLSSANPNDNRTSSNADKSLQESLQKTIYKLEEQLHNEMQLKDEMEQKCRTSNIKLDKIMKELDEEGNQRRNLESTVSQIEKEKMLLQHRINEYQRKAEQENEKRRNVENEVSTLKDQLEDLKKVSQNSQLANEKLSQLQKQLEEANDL
Protocol: Reactions were carried out in a solution containing 100 mM HEPES (pH 7.5), 10 mM MgCl2, 25 mM NaCl, 2 mM DTT and 1.5% DMSO.
(§1) If more than one value of Ki has been determined, the average Ki is indicated. If no value is indicated, then the Ki was not determined.

ROCK = ROCK (Homo sapiens, UniProt Q13464); assay: ROCK radioactive assay ("33P"); settings: radioactive assay; average Ki if more than one determined; read-out: ROCK 33P Ki
ROCK, sequence (Q13464 whole entry): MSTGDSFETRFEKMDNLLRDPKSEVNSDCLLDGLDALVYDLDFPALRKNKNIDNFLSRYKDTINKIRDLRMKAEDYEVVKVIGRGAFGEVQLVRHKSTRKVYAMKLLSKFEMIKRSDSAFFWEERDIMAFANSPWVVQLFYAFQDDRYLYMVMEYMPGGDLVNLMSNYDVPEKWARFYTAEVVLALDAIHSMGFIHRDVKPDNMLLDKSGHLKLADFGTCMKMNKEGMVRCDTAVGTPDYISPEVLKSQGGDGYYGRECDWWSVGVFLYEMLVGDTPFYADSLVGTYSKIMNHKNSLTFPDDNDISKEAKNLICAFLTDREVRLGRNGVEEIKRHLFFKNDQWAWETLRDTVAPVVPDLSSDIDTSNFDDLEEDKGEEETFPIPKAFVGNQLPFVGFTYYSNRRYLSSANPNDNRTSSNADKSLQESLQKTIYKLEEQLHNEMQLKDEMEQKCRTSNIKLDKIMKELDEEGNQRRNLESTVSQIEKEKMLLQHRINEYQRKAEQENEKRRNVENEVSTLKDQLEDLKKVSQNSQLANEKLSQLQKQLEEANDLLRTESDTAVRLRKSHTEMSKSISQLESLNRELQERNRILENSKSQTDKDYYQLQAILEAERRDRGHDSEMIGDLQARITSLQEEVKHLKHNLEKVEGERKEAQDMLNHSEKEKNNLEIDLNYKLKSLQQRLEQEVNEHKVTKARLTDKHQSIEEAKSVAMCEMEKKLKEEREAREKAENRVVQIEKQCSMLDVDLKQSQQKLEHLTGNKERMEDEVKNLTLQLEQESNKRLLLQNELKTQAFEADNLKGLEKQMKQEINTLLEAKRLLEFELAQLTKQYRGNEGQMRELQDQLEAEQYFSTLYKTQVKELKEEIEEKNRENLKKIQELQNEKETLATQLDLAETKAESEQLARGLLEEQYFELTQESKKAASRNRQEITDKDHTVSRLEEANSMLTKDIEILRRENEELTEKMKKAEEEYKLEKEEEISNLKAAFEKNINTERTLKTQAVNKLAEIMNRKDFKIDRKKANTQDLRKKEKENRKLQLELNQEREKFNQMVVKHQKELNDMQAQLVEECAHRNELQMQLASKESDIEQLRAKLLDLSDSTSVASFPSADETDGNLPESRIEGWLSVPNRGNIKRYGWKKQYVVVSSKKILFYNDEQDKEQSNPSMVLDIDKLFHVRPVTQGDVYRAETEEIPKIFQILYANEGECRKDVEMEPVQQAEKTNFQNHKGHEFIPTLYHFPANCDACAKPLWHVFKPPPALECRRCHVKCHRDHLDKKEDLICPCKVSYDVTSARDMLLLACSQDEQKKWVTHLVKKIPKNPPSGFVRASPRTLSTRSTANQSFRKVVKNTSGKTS
Source text: as §1

Row | SMILES | Ki (PKA) | Ki (Itk) | Ki (ROCK I (AA 6-553)) | Ki (ROCK)
1 | O=C(Cc1ccccc1)Nc1nc(-c2c[nH]c3ncccc23)cs1 [I-1] | < 500 nM | 500 to 5000 nM | – | –
2 | O=C(Cc1ccccc1)N(c1nc(-c2c[nH]c3ncccc23)cs1)C1CC1 [I-20] | < 500 nM | 500 to 5000 nM | < 500 nM | –
3 | O=C(Cc1ccc(F)cc1)N(c1nc(-c2c[nH]c3ncccc23)cs1)C1CC1 [II-53] | < 500 nM | 500 to 5000 nM | < 500 nM | –
4 | O=C(CCc1ccccc1)N(c1nc(-c2c[nH]c3ncccc23)cs1)C1CC1 [II-54] | < 500 nM | 500 to 5000 nM | < 500 nM | –
5 | O=C(Cc1ccccc1)Nc1nc(-c2c[nH]c3ncc(Br)cc23)cs1 [II-79] | < 500 nM | 500 to 5000 nM | < 500 nM | < 500 nM
6 | CC(C)C(=O)Nc1nc(-c2c[nH]c3ncccc23)cs1 [II-162] | 500 to 5000 nM | 500 to 5000 nM | – | < 500 nM
7 | O=C(NCC1CCNCC1)c1nc(-c2c[nH]c3ncc(-c4ccccc4)cc23)cs1 [II-245] | 500 to 5000 nM | 500 to 5000 nM | – | < 500 nM
8 | O=C(Nc1nc(-c2c[nH]c3ncc(Br)cc23)cs1)C1Cc2ccccc2C1 [II-246] | 500 to 5000 nM | 500 to 5000 nM | – | < 500 nM
9 | O=C(Nc1nc(-c2c[nH]c3ncc(Br)cc23)cs1)C1CC1 [II-247] | 500 to 5000 nM | 500 to 5000 nM | – | < 500 nM
10 | O=C(CC1CCCC1)Nc1nc(-c2c[nH]c3ncc(Br)cc23)cs1 [II-248] | < 500 nM | 500 to 5000 nM | – | 500 to 5000 nM
11 | O=C(CCc1ccccc1)Nc1nc(-c2c[nH]c3ncc(Br)cc23)cs1 [II-249] | 500 to 5000 nM | 500 to 5000 nM | – | < 500 nM
12 | O=C(Cc1ccc(Br)cc1)Nc1nc(-c2c[nH]c3ncc(Br)cc23)cs1 [II-250] | < 500 nM | 500 to 5000 nM | – | –
13 | O=C(CCC1CCCCC1)Nc1nc(-c2c[nH]c3ncc(Br)cc23)cs1 [II-251] | < 500 nM | 500 to 5000 nM | – | 500 to 5000 nM
14 | O=C(Nc1nc(-c2c[nH]c3ncc(Br)cc23)cs1)C1CCOC1 (centres unmarked) [II-252] | 500 to 5000 nM | 500 to 5000 nM | – | < 500 nM
15 | O=C(CCS(=O)(=O)c1ccccc1)Nc1nc(-c2c[nH]c3ncc(Br)cc23)cs1 [II-253] | < 500 nM | 500 to 5000 nM | – | 500 to 5000 nM
16 | O=C(CCOc1ccccc1)Nc1nc(-c2c[nH]c3ncc(Br)cc23)cs1 [II-254] | 500 to 5000 nM | 500 to 5000 nM | – | < 500 nM
17 | O=C(CCNC(=O)OCc1ccccc1)Nc1nc(-c2c[nH]c3ncc(Br)cc23)cs1 [II-255] | 500 to 5000 nM | 500 to 5000 nM | – | –
18 | CCN(C(=O)CC1CCCC1)c1nc(-c2c[nH]c3ncc(Br)cc23)cs1 [II-256] | – | 500 to 5000 nM | – | –
